{"source": "paper PMC13308190", "about": "“Endothelial progenitor cell susceptibility to DNA damaging and DDR-modulating compounds determines endothelial differentiation accuracy” (Stem Cell Research & Therapy, 2026)", "type_in_all_cases": "cell-based, mouse", "key": {"[1]": {"tested_on": "EC d6 (endothelial-like cells)", "test": "RT-qPCR mRNA expression", "conditions": "for Cdkn1a mRNA / Cdkn2a mRNA / Glb1 mRNA / Il6 mRNA / Il8 mRNA / Tp53 mRNA: Fig 7C", "method": "(§1) Total RNA was purified using the RNeasy Mini Kit (Qiagen, Hilden, Germany). Reverse transcriptase (RT) reaction was performed with the HighCapacity cDNA Reverse Transcription Kit (Applied Biosystems, Darmstadt, Germany) using 900–2000 ng of RNA. Quantitative RT-qPCR analysis was performed using following conditions: (1) 95 °C–10 min; (2) 45 amplification cycles with 95 °C–15 s, 55 °C–15 s, and 72 °C–17 s; (3) 95 °C–1 min, 55 °C–1 min, 65 °C–5 s. If not stated otherwise, analyses were performed in technical triplicates using pooled samples from two independent experiments (each performed with biological duplicates) by use of a CFX96 cycler (BioRad) and the SensiMix SYBR Kit (Bioline, London, UK). The primers used for mRNA expression analyses are listed in Supplementary Table 1. To ensure the specificity of the amplification product, melting curves were recorded at the end of the run. mRNA expression levels were normalized to β-Actin and Gapdh. Relative mRNA expression in mESC or corresponding untreated controls was set to 1.0. Only changes in gene expression of ≤ 0.5- and ≥ 2-fold were considered as biologically relevant."}, "mESC": {"tested_on": "mESC", "test": "Nuclear γH2AX / 53BP1 foci (DSB)", "conditions": "mESC 24 h, equitoxic concentrations", "method": "(§2) DNA double-strand breaks were monitored by immunocytochemical detection of nuclear γH2AX and 53BP1 foci. Cells were fixed with 3.7% formaldehyde/PBS (15 min, RT) and permeabilized (0.3% TritonX/PBS; 15 min, RT). […] Cell suspension was mixed with 0.5% low melting point agarose and applied onto glass slides coated with 1.5% agarose. After lysis in alkaline buffer (pH 10, 1 h, 4 °C, protected from light) and DNA denaturation in precooled electrophoresis buffer (pH > 13, 25 min, 4 °C, protected from light) electrophoresis was performed (300 mA, 25 V, 4 °C, 25 min)."}, "EC d4": {"tested_on": "EC d4", "test": "Nuclear γH2AX / 53BP1 foci (DSB)", "conditions": "EC d4 48 h, equitoxic concentrations", "method": "as §2"}, "[2]": {"tested_on": "EC d4 (endothelial progenitor cells)", "test": "RT-qPCR mRNA expression", "conditions": "for Ccl2 mRNA / Icam-1 mRNA / Vcam-1 mRNA / eNos mRNA / iNos mRNA: Fig 8D; for Cdkn1a mRNA / Cdkn2a mRNA / Glb1 mRNA / Il6 mRNA / Il8 mRNA / Tp53 mRNA: Fig 7B", "method": "as §1\nTo monitor prototypical functions of endothelial cells, the uptake of fluorescent 1,1-dioctadecyl-3,3,3,3-tetra-methylindocarbocyanine-labeled acetylated LDL (Dil-acLDL) was examined. Briefly, cells were incubated with Dil-acLDL (10 µg/ml, 4 h, 37 °C). After fixation (3.7% cold formaldehyde/PBS (15 min, RT) nuclei were counterstained with DAPI. The uptake of DiI-acLDL was analyzed by fluorescence microscopy (Olympus BX43, 20x objective). Additionally, the response of differentiated EC to inflammatory cytokines was measured. After treatment with a pro-inflammatory cytokine mixture (TNFα/IL-1β, 10 ng/mL) for 1 h, mRNA expression of activated EC markers E-selectin, Icam-1, Vcam-1, Ccl2, eNos, iNos was analyzed (RT-qPCR)."}, "[3]": {"conditions": "EC d6 + 10 µM 24 h + 24 h post incubation"}, "[4]": {"conditions": "EC d6 + 20 µM 24 h + 24 h post incubation"}, "[5]": {"conditions": "EC d4 + 0.5 µM 48 h, analysed in EC d6"}, "[6]": {"conditions": "EC d4 + 0.5 µM 48 h, then + I/T (IL-1β/TNFα 10 ng/ml, 1 h)"}, "[7]": {"conditions": "EC d4 + 1 µM 48 h, analysed day 6, Fig 1C"}, "[8]": {"conditions": "EC d4 + 1 µM 48 h, analysed in EC d6"}, "[9]": {"conditions": "EC d4 + 1 µM 48 h, then + I/T (IL-1β/TNFα 10 ng/ml, 1 h)"}}}
{"compound": "Nc1ccccc1NC(=O)c1ccc(CNC(=O)OCc2cccnc2)cc1", "note": "[EST, entinostat]", "values": [{"measurement": "Cdkn1a mRNA", "setting": "[1]; [3]", "value": "1.91 Fold of untreated control"}, {"measurement": "Cdkn2a mRNA", "setting": "[1]; [3]", "value": "1.85 Fold of untreated control"}, {"measurement": "Glb1 mRNA", "setting": "[1]; [3]", "value": "3.60 Fold of untreated control"}, {"measurement": "Il6 mRNA", "setting": "[1]; [3]", "value": "1.19 Fold of untreated control"}, {"measurement": "Il8 mRNA", "setting": "[1]; [3]", "value": "0.24 Fold of untreated control"}, {"measurement": "Tp53 mRNA", "setting": "[1]; [3]", "value": "0.82 Fold of untreated control"}, {"measurement": "Cdkn1a mRNA", "setting": "[1]; [4]", "value": "2.49 Fold of untreated control"}, {"measurement": "Cdkn2a mRNA", "setting": "[1]; [4]", "value": "2.02 Fold of untreated control"}, {"measurement": "Glb1 mRNA", "setting": "[1]; [4]", "value": "5.40 Fold of untreated control"}, {"measurement": "Il6 mRNA", "setting": "[1]; [4]", "value": "2.47 Fold of untreated control"}, {"measurement": "Il8 mRNA", "setting": "[1]; [4]", "value": "0.48 Fold of untreated control"}, {"measurement": "Tp53 mRNA", "setting": "[1]; [4]", "value": "0.96 Fold of untreated control"}, {"measurement": "Brca1 mRNA", "setting": "[1]; EC d6 + 20 µM 24 h, Fig 5C", "value": "0.19 Fold of mESC"}, {"measurement": "Chk1 mRNA", "setting": "[1]; EC d6 + 20 µM 24 h, Fig 5C", "value": "0.44 Fold of mESC"}, {"measurement": "Rad51 mRNA", "setting": "[1]; EC d6 + 20 µM 24 h, Fig 5C", "value": "0.11 Fold of mESC"}, {"measurement": "Pgc1a mRNA", "setting": "[1]; EC d6 + 20 µM 24 h, Fig 6D", "value": "5.75 Fold of untreated control"}, {"measurement": "Cldn5 mRNA", "setting": "[1]; EC d6 + 20 µM 24 h, Fig 8C", "value": "2.16 Fold of EC d4 or d6"}, {"measurement": "Ocln mRNA", "setting": "[1]; EC d6 + 20 µM 24 h, Fig 8C", "value": "1.62 Fold of EC d4 or d6"}, {"measurement": "Tjp1 mRNA", "setting": "[1]; EC d6 + 20 µM 24 h, Fig 8C", "value": "1.46 Fold of EC d4 or d6"}, {"measurement": "nuclear γH2AX foci", "setting": "mESC", "value": "significant increase"}, {"measurement": "DSB numbers (γH2AX / 53BP1 foci)", "setting": "EC d4", "value": "clear increase"}, {"measurement": "Ccl2 mRNA", "setting": "[2]; [5]", "value": "4.20 Fold of untreated control"}, {"measurement": "Icam-1 mRNA", "setting": "[2]; [5]", "value": "6.04 Fold of untreated control"}, {"measurement": "Vcam-1 mRNA", "setting": "[2]; [5]", "value": "0.80 Fold of untreated control"}, {"measurement": "eNos mRNA", "setting": "[2]; [5]", "value": "156.02 Fold of untreated control"}, {"measurement": "iNos mRNA", "setting": "[2]; [5]", "value": "4.21 Fold of untreated control"}, {"measurement": "Ccl2 mRNA", "setting": "[2]; [6]", "value": "454.50 Fold of untreated control"}, {"measurement": "Icam-1 mRNA", "setting": "[2]; [6]", "value": "26.69 Fold of untreated control"}, {"measurement": "Vcam-1 mRNA", "setting": "[2]; [6]", "value": "1.68 Fold of untreated control"}, {"measurement": "eNos mRNA", "setting": "[2]; [6]", "value": "165.80 Fold of untreated control"}, {"measurement": "iNos mRNA", "setting": "[2]; [6]", "value": "4.06 Fold of untreated control"}, {"measurement": "Cdkn1a mRNA", "setting": "[2]; EC d4 + 0.5 µM 48 h", "value": "1.59 Fold of untreated control"}, {"measurement": "Cdkn2a mRNA", "setting": "[2]; EC d4 + 0.5 µM 48 h", "value": "1.29 Fold of untreated control"}, {"measurement": "Glb1 mRNA", "setting": "[2]; EC d4 + 0.5 µM 48 h", "value": "1.41 Fold of untreated control"}, {"measurement": "Il6 mRNA", "setting": "[2]; EC d4 + 0.5 µM 48 h", "value": "0.99 Fold of untreated control"}, {"measurement": "Il8 mRNA", "setting": "[2]; EC d4 + 0.5 µM 48 h", "value": "0.80 Fold of untreated control"}, {"measurement": "Tp53 mRNA", "setting": "[2]; EC d4 + 0.5 µM 48 h", "value": "1.018 Fold of untreated control"}, {"measurement": "Flk1 mRNA", "setting": "[2]; [7]", "value": "19.60 Fold of mESC"}, {"measurement": "Nanog mRNA", "setting": "[2]; [7]", "value": "0.05 Fold of mESC"}, {"measurement": "Oct4 mRNA", "setting": "[2]; [7]", "value": "0.05 Fold of mESC"}, {"measurement": "Pecam1 mRNA", "setting": "[2]; [7]", "value": "1.30 Fold of mESC"}, {"measurement": "VE-cad mRNA", "setting": "[2]; [7]", "value": "858.76 Fold of mESC"}, {"measurement": "Ccl2 mRNA", "setting": "[2]; [8]", "value": "0.90 Fold of untreated control"}, {"measurement": "Icam-1 mRNA", "setting": "[2]; [8]", "value": "5.21 Fold of untreated control"}, {"measurement": "Vcam-1 mRNA", "setting": "[2]; [8]", "value": "0.49 Fold of untreated control"}, {"measurement": "eNos mRNA", "setting": "[2]; [8]", "value": "58.94 Fold of untreated control"}, {"measurement": "Ccl2 mRNA", "setting": "[2]; [9]", "value": "132.23 Fold of untreated control"}, {"measurement": "Icam-1 mRNA", "setting": "[2]; [9]", "value": "19.80 Fold of untreated control"}, {"measurement": "Vcam-1 mRNA", "setting": "[2]; [9]", "value": "1.55 Fold of untreated control"}, {"measurement": "eNos mRNA", "setting": "[2]; [9]", "value": "53.06 Fold of untreated control"}, {"measurement": "iNos mRNA", "setting": "[2]; [9]", "value": "1.30 Fold of untreated control"}, {"measurement": "Brca1 mRNA", "setting": "[2]; EC d4 + 1 µM 48 h, Fig 5C", "value": "0.32 Fold of mESC"}, {"measurement": "Chk1 mRNA", "setting": "[2]; EC d4 + 1 µM 48 h, Fig 5C", "value": "0.51 Fold of mESC"}, {"measurement": "Rad51 mRNA", "setting": "[2]; EC d4 + 1 µM 48 h, Fig 5C", "value": "0.26 Fold of mESC"}, {"measurement": "Pgc1a mRNA", "setting": "[2]; EC d4 + 1 µM 48 h, Fig 6D", "value": "0.21 Fold of untreated control"}, {"measurement": "Cdkn1a mRNA", "setting": "[2]; EC d4 + 1 µM 48 h", "value": "1.62 Fold of untreated control"}, {"measurement": "Cdkn2a mRNA", "setting": "[2]; EC d4 + 1 µM 48 h", "value": "1.49 Fold of untreated control"}, {"measurement": "Glb1 mRNA", "setting": "[2]; EC d4 + 1 µM 48 h", "value": "1.61 Fold of untreated control"}, {"measurement": "Il6 mRNA", "setting": "[2]; EC d4 + 1 µM 48 h", "value": "1.09 Fold of untreated control"}, {"measurement": "Il8 mRNA", "setting": "[2]; EC d4 + 1 µM 48 h", "value": "0.57 Fold of untreated control"}, {"measurement": "Tp53 mRNA", "setting": "[2]; EC d4 + 1 µM 48 h", "value": "0.99 Fold of untreated control"}, {"measurement": "Cldn5 mRNA", "setting": "[2]; EC d4 + 1 µM 48 h, Fig 8C", "value": "0.55 Fold of EC d4 or d6"}, {"measurement": "Ocln mRNA", "setting": "[2]; EC d4 + 1 µM 48 h, Fig 8C", "value": "1.06 Fold of EC d4 or d6"}, {"measurement": "Tjp1 mRNA", "setting": "[2]; EC d4 + 1 µM 48 h, Fig 8C", "value": "1.56 Fold of EC d4 or d6"}, {"measurement": "Ldlr mRNA", "setting": "[2]; EC d4 + 1 µM 48 h, Fig 8F", "value": "0.66 Fold of untreated control"}]}
